For data set [1] the following is noted: oral administration; cited from earlier work.
The subject of data set [2] is SH-S5Y5 neuroblastoma cells. Briefly: Cell viability (MTT) in response to Aβ, in vitro model of Alzheimer's disease. Format: cell-based. The settings on record: 20 μM Aβ, 24 h. The text has this: (§1) The SH-S5Y5 neuroblastoma cell line was used for pre-clinical analysis. The SH-S5Y5 cell line is commonly used as a model for neurodegenerative disorders as the cells can be converted to various types of functional neurons by the addition of specific compounds (see, e.g., Xicoy et al., 2017, Molecular Neurodegeneration, 12: 10). In addition, the SH-S5Y5 cell line has been used widely in experimental neurological studies, including analysis of neuronal differentiation, metabolism, and function related to neurodegenerative processes, neurotoxicity and neuroprotection (see, e.g., Datki et al., 2003, Brain Research Bulletin, 62(3): 22-229; and Xie et al., 2010, Chinese Medical Journal, 123(8): 1086-1092).
100 μL MTT reagent was added to each well (final concentration 0.5 mg/mL). Cells were then incubated at 37 °C, 5% CO2 for 4 hours. Solubilization buffer (100 μL) was then added to each well and further incubated at 37 °C, 5% CO2 for 24 hours. Absorbance was then measured by spectrophotometer at 550-600 nm and background corrected at 650 nm.
Amyloid-β (Aβ; 1 mg) was dissolved in 2 mL of 1,1,1,3,3,3-hexafluoro-2-propanol (HFIP). An additional 200 μL of HFIP was then added due to volatility. The Aβ was sealed with parafilm and vortexed for 30 seconds before aliquoting at 100 μL per 1.5 mL tube. HFIP was then evaporated in fume hood for 8 hours. Tubes were then sealed with lid and parafilm and stored at −80 °C. Prior to use, Aβ was reconstituted in DMSO to a final volume of 10% v/v for 10-15 min at RT and vortexed every 3-5 min. F-12 medium was then added to a final volume of 90% v/v. Aβ was then stored at 4 °C for 24 hours and vortexed before use.
Cells were seeded in 96-well microplates and incubated 37 °C, 5% CO2 for 24 hours.

In the next data set the test system is SH-SY5Y cells. Briefly: Gene expression analysis by RNA sequencing in the presence of Aβ. The class given is cell-based, human.
Description: as §1
Total RNA was isolated from cells using TRIzol in accordance with the manufacturer's instructions (Invitrogen, Carlsbad, CA, USA). RNA concentration and quality was assessed using a NanoDrop spectrophotometer. Only samples with a 260/280 ratio of ≥1.8 were used for further analysis.
Messenger RNA (mRNA) was purified from total RNA using poly-T oligo attached magnetic beads. After fragmentation, cDNA synthesis was performed in accordance with the manufacturer's instructions (Illumina, San Diego, CA, USA) to generate a directional and non-directional library. Libraries were checked with Qubit, real-time PCR was performed for quantification, and size distribution detection was performed using the Bioanalyzer. Quantified libraries were pooled and sequenced on an Illumina platform, according to the manufacturer's instructions.
Raw reads were filtered and mapped to human reference genome (GRCh38/hg38) using HISAT2. Differential gene expression analysis was performed using R Package DEG seq2. […] Manual annotation of genes previously associated with specific neurodegenerative disorders and dementias was performed following a text mining analysis.

The values that follow come from patent publication US20260345641A1, “COMPOSITIONS AND USES THEREOF” (Algorae Pharmaceuticals Ltd, priority 2023, published 2026).

On to `COc1ccc2c3c1O[C@H]1C[C@@H](O)C=C[C@@]31CCN(C)C2` [Galantamine], for which the bioavailability result in data set [1] is “high bioavailability”.

Turning to `C=C(C)[C@@H]1CCC(C)=C[C@H]1c1c(O)cc(CCCCC)cc1O` [CBD, Cannabidiol], the “Cell viability as measured by MTT” value in data set [2] (CBD 2.5 μM) is 0.011; in data set [2] (CBD 5 μM), 0.031; in data set [2] (CBD 10 μM), 0.116. In addition, the MFSD8 expression with SH-SY5Y cells is recorded as 2.603 FPKM. For the same compound, the MBP expression with SH-SY5Y cells (5 μM CBD, Aβ, control 0.089, P 0.012) is on record as 0.046 FPKM. Besides, the GBE1 expression with SH-SY5Y cells (5 μM CBD, Aβ, control 1.194, P 0.037) is 1.305 FPKM. In the data set on SH-SY5Y cells (5 μM CBD, Aβ, control 1.970, P 0.037), the ERCC4 expression is 2.197 FPKM. For the same compound, the MT-TW expression with SH-SY5Y cells (5 μM CBD, Aβ, control 2.846, P 0.023) was 4.309 FPKM. The TRAPPC2 expression with SH-SY5Y cells (5 μM CBD, Aβ, control 3.872, P 0.013) is given as 4.267 FPKM. Moreover, in the data set with SH-SY5Y cells (5 μM CBD, Aβ, control 7.014, P 0.046), the SLC20A2 expression is listed as 7.447 FPKM. The IRF6 expression in the data set with SH-SY5Y cells (5 μM CBD, Aβ, control 7.365, P 0.012) turned out to be 7.774 FPKM. Moreover, the LAMP1 expression in the data set with SH-SY5Y cells (5 μM CBD, Aβ, control 34.350, P 0.018) came to 31.452 FPKM. Besides, the TAF15 expression with SH-SY5Y cells (5 μM CBD, Aβ, first TAF15 line, control 14.968, P 0.046) worked out at 17.887 FPKM; in the data set on SH-SY5Y cells (5 μM CBD, Aβ, second TAF15 line, control 15.869, P 0.046), 17.095 FPKM.

With `CCN(C)C(=O)Oc1cccc([C@H](C)N(C)C)c1` [Rivastigmine], in data set [1], the bioavailability entry is given as “high bioavailability”.
